Data published in US6531603B1, “Polymorphic forms of 6-[4-(1-cyclohexyl-1H-tetrazol-5-yl)butoxy]-3,4-dihydro-2(1H)-quinolinone” (priority 2001, dated 2003).

Assays:
bioavailability = type: in vivo; conditions: Form A as prepared by the procedures of the '479 patent
[1] = aqueous solubility of cilostazol polymorphic forms; type: physicochemical
[2] = stability of the crystalline form; type: physicochemical
[3] = solid state phase transformation of disturbed sample on heating by DSC; type: physicochemical; conditions: sample disturbed with scratching / stressed, DSC heating from 30° C. to approximately 200° C. at 10° C. per minute, followed by melt at about 160° C. (Form A)
From the text: Characterization of Form A of cilostazol, Form B of cilostazol, and Form C of cilostazol was further completed using DSC thermograms, shown in FIGS. 3, 4, and 5, respectively, with DSC thermograms for combinations of Form A and Form B; Form B and Form C; and Forms A, B, and C are shown in FIGS. 6, 7, and 8 respectively. DSC data were generated using a Mettler-Toledo DSC 821^e (Columbus, Ohio) with a Julabo FT900 intercooler chiller (Julabo Company; Allentown, Pa.). In general, samples were analyzed in a vented, sealed aluminum pan. Because the endothermic peak may vary depending upon the rate of heating and the calibration and precision of the instrument, with the amount of peak variation dependent upon the heating rate used, all thermograms included herein were run under the same, consistent conditions: heating at 10° C. per minute under a nitrogen purge at 40 mL/minute. The resultant sample of Example 1A was disturbed with scratching, which caused the cilostazol sample to undergo a solid state phase transformation at approximately 119° C. followed by an endotherm of melt at approximately 160° C. (Form A) during heating by DSC from 30° C. to approximately 200° C. at 10° C. per minute. When the sample is stressed and reheated (as detailed in Example 2A), the sample undergoes a solid state phase transformation at approximately 147° C. followed by an endotherm of melt at about 160° C. […]

Question: Which bioavailability (bioavailability) does the source give for O=C1CCc2cc(OCCCCc3nnnn3C3CCCCC3)ccc2N1 [Form A, 6-[4-(1-cyclohexyl-1H-tetrazol-5-yl)butoxy]-3,4-dihydro-2(1H)-quinolinone] here?
Answer: low

Question: And the aqueous solubility ([1]; Form A as prepared by the procedures of the '479 patent)?
Answer: low

Question: For O=C1CCc2cc(OCCCCc3nnnn3C3CCCCC3)ccc2N1 [Form B, 6-[4-(1-cyclohexyl-1H-tetrazol-5-yl)butoxy]-3,4-dihydro-2(1H)-quinolinone], which “stability of the polymorphic form” value [2] is on record?
Answer: stable

Question: And the “solid state phase transformation temperature (to Form A)” value ([3]; listed as Example 1A)?
Answer: approximately 119 °C

Question: And the “solubility relative to Form A” value ([1]; inferred from lower melting point in DSC thermogram (FIG. 8), solubility itself not measured)?
Answer: more soluble than Form A

Question: Which “solid state phase transformation temperature (to Form A)” value ([3]; listed as Example 2A) does the source give for O=C1CCc2cc(OCCCCc3nnnn3C3CCCCC3)ccc2N1 [Form C, 6-[4-(1-cyclohexyl-1H-tetrazol-5-yl)butoxy]-3,4-dihydro-2(1H)-quinolinone] here?
Answer: approximately 147 °C
